# Laboratory results as given in US20220016113A1, “?2-ADRENOCEPTOR SUBTYPE C (ALPHA-2C) ANTAGONISTS FOR THE TREATMENT OF SLEEP APNEA” (Bayer Aktiengesellschaft, priority 2018, published 2022).
# System: pig model of obstructive sleep apnea (OSA)
# Assay: pig model of obstructive sleep apnea (OSA): upper airway collapsibility under negative pressure
# Assay type: in vivo, German Landrace pigs
# Settings: anaesthetized pigs
# Excerpt: The therapeutic potential of the compounds of formula (I) according to the present invention in sleep apnea has been assessed preclinically in a pig model of obstructive sleep apnea (OSA).
# Using negative pressure, it is possible to induce collapse and thus obstruction of the upper respiratory tract in anaesthetized, spontaneously breathing pigs (Wirth K. J. et al., Sleep 36(5) (2013) pp. 699-708).
# German Landrace pigs are used for the model. The pigs are anaesthetized and tracheotomized. Two tracheal cannulas are inserted into the trachea, one into the rostral part and the other into the caudal part of the trachea. Using a connection piece, the rostral cannula is connected to a tube to the negative pressure device and to the distal tracheal cannula. The distal tracheal cannula is additionally connected to a tube with an open end to atmosphere via a connection piece that served for free tracheal breathing, circumventing the upper airway. By appropriate opening and clamping of those tubes breathing can be switched from nasal breathing to breathing through the caudal tracheal cannula, circumventing the upper airway, and the (isolated) upper airway can be connected to the negative pressure device, causing airflow in the inspiratory direction.
# At certain points in time, the collapsibility of the upper respiratory tract is tested by having the pig breathe via the caudal cannula and applying negative pressures of −50, −100 and −150 cm water head (cm H2O) to the upper respiratory tract. This causes the upper respiratory tract to collapse, which manifests itself in an interruption of the airflow and a pressure drop in the tube system. This test is conducted prior to the administration of the test substance and at certain intervals after the administration of the test substance. An appropriately effective test substance can prevent this collapse of the respiratory tract in the inspiratory phase.
compound,measurement,setting,value
"O=C(c1cnc(N2CC3(COC3)C2)nc1)N1CCC(N2CCc3ccccc3C2)CC1 [[4-(3,4-Dihydroisoquinolin-2(1H)-yl)piperidin-1-yl][2-(2-oxa-6-azaspiro[3.3]hept-6-yl)pyrimidin-5-yl]methanone]","inhibited upper airway collapsibility, duration","i.v. bolus 0.007 mg/kg followed by i.v. infusion 0.0025 mg/kg/h for four hours, negative pressure −50 cm water head",up to two hours
same,"inhibited upper airway collapsibility, duration","i.v. bolus 0.007 mg/kg followed by i.v. infusion 0.0025 mg/kg/h for four hours, negative pressure −100 cm water head",up to 90 minutes
same,"inhibited upper airway collapsibility, duration","i.v. bolus 0.07 mg/kg followed by i.v. infusion 0.025 mg/kg/h for four hours, negative pressure −50 cm water head",up to four hours
same,"inhibited upper airway collapsibility, duration","i.v. bolus 0.07 mg/kg followed by i.v. infusion 0.025 mg/kg/h for four hours, negative pressure −100 cm water head",up to four hours
same,"inhibited upper airway collapsibility, duration","i.v. bolus 0.07 mg/kg followed by i.v. infusion 0.025 mg/kg/h for four hours, negative pressure −150 cm water head",up to two hours
